Values of other authors, collected in patent publication EP1815850B1, “Controlled release formulation of divalproic acid and its derivatives” (TEVA PHARMACEUTICAL INDUSTRIES LTD., priority 2006, dated 2007).

Details: in adults

elimination half-life: six and seventeen
Structure (SMILES): CCCC(CCC)C(=O)O [valproic acid, 2-Propylpentanoic acid]
